Reference: ChEMBL document CHEMBL1201862, “PubChem BioAssay data set” (2004)
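Dose response: 5 concentrations. Exposure: 48 h. Format: 96-well plates. Endpoint: linear interpolation; highest concentration if not reached. The concentration for 50% growth inhibition is given as GI50.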 Calls of active or inactive are those of the source. Rule as the data show it: active = GI50 up to about 1.1 µM and inactive = higher.

How the values were obtained:
Assay in all cases: NCI-60 cell line screen, 48 h
SNB-78 = tested on: SNB-78
DMS-114 = tested on: DMS-114
M19-MEL = tested on: M19-MEL
KM-20L2 = tested on: KM-20L2
XF498 = tested on: XF498
DLD-1 = tested on: DLD-1
DMS-273 = tested on: DMS-273
HOP-18 = tested on: HOP-18
RXF 631 = tested on: RXF 631

**Q.** How did the GI50 (SNB-78) turn out when `CCCCN(CCCC)CC(C(=O)Nc1ccccc1)/C(C)=N\NC(=O)c1ccncc1` (stereo not given) was run?
**A.** > 100 µM (inactive)

**Q.** What about the GI50 (DMS-114) of the same compound?
**A.** 63 µM (inactive)

**Q.** What about the GI50 (M19-MEL) of the same compound?
**A.** 68.9 µM (inactive)

**Q.** And the GI50 (KM-20L2)?
**A.** > 100 µM (inactive)

**Q.** What about the GI50 (XF498) of the same compound?
**A.** > 100 µM (inactive)

**Q.** What about the GI50 (DLD-1) of the same compound?
**A.** > 100 µM (inactive)

**Q.** And the GI50 (DMS-273)?
**A.** > 100 µM (inactive)

**Q.** What does the source list for `Cc1cccc2c(O)cc(=O)oc12`?
**A.** GI50 (HOP-18): > 100 µM (inactive); GI50 (SNB-78): > 100 µM (inactive); GI50 (DMS-114): > 100 µM (inactive); GI50 (M19-MEL): > 100 µM (inactive); GI50 (KM-20L2): > 100 µM (inactive); GI50 (XF498): > 100 µM (inactive); GI50 (DLD-1): > 100 µM (inactive)

**Q.** How did the GI50 (HOP-18) turn out when `CCn1c(=O)nc2n(-c3ccccc3)c3ccccc3nc-2c1=O` was run?
**A.** 61.4 µM (inactive)

**Q.** What about the GI50 (SNB-78) of the same compound?
**A.** 49.8 µM (inactive)

**Q.** What about the GI50 (DMS-114) of the same compound?
**A.** 11.1 µM (inactive)

**Q.** What about the GI50 (M19-MEL) of the same compound?
**A.** 10.6 µM (inactive)

**Q.** And the GI50 (KM-20L2)?
**A.** 10 µM (inactive)

**Q.** And the GI50 (XF498)?
**A.** 4.83 µM (inactive)

**Q.** And the GI50 (DLD-1)?
**A.** 28.3 µM (inactive)

**Q.** And the GI50 (DMS-273)?
**A.** 12.7 µM (inactive)

**Q.** What does the source list for `CCOC(=O)c1cc2c(cn1)[nH]c1cccc(N)c12`?
**A.** GI50 (HOP-18): > 100 µM (inactive); GI50 (SNB-78): > 100 µM (inactive); GI50 (DMS-114): > 100 µM (inactive); GI50 (M19-MEL): > 100 µM (inactive); GI50 (XF498): > 100 µM (inactive); GI50 (DLD-1): > 100 µM (inactive); GI50 (DMS-273): > 100 µM (inactive)

**Q.** Which GI50 (HOP-18) does the source give for `C=CCN(N=O)C(=O)NCCCC(NC(C)=O)C(=O)NCc1ccccc1` (stereo not given) here?
**A.** 10.9 µM (inactive)

**Q.** And the GI50 (DMS-114)?
**A.** > 100 µM (inactive)

**Q.** What about the GI50 (M19-MEL) of the same compound?
**A.** > 100 µM (inactive)

**Q.** And the GI50 (KM-20L2)?
**A.** > 100 µM (inactive)

**Q.** What about the GI50 (RXF 631) of the same compound?
**A.** > 100 µM (inactive)

**Q.** What about the GI50 (XF498) of the same compound?
**A.** > 100 µM (inactive)

**Q.** What about the GI50 (DMS-273) of the same compound?
**A.** > 100 µM (inactive)

**Q.** For `CC1(C)N=C(Oc2ccccc2)n2nccc2N1`, which GI50 (HOP-18) is on record?
**A.** > 100 µM (inactive)

**Q.** And the GI50 (DMS-114)?
**A.** > 100 µM (inactive)

**Q.** And the GI50 (M19-MEL)?
**A.** > 100 µM (inactive)

**Q.** What about the GI50 (KM-20L2) of the same compound?
**A.** > 100 µM (inactive)

**Q.** What about the GI50 (XF498) of the same compound?
**A.** > 100 µM (inactive)

**Q.** What about the GI50 (DLD-1) of the same compound?
**A.** > 100 µM (inactive)

**Q.** What about the GI50 (DMS-273) of the same compound?
**A.** 66.7 µM (inactive)

**Q.** `CC(C)(C)C(=O)Cc1cc2c(cc1C(=O)O)S(=O)(=O)NC(C(C)(C)C)=C2` was tested. Which GI50 (SNB-78) did it give?
**A.** > 100 µM (inactive)

**Q.** What about the GI50 (DMS-114) of the same compound?
**A.** > 100 µM (inactive)

**Q.** And the GI50 (M19-MEL)?
**A.** > 100 µM (inactive)

**Q.** And the GI50 (DLD-1)?
**A.** > 100 µM (inactive)

**Q.** Which GI50 (SNB-78) does the source give for `O=c1[nH]c2cccccc-2c1-c1nc2ccccc2[nH]1` here?
**A.** 25.7 µM (inactive)

**Q.** And the GI50 (DMS-114)?
**A.** 10.3 µM (inactive)

**Q.** What about the GI50 (M19-MEL) of the same compound?
**A.** 34.2 µM (inactive)

**Q.** And the GI50 (KM-20L2)?
**A.** 46.5 µM (inactive)

**Q.** What about the GI50 (XF498) of the same compound?
**A.** 18.5 µM (inactive)

**Q.** And the GI50 (DLD-1)?
**A.** 32.4 µM (inactive)

**Q.** What about the GI50 (DMS-273) of the same compound?
**A.** 15.5 µM (inactive)

**Q.** How did the GI50 (HOP-18) turn out when `COc1ccccc1C(N)c1ccccc1` (stereo not given) was run?
**A.** > 100 µM (inactive)

**Q.** What about the GI50 (SNB-78) of the same compound?
**A.** > 100 µM (inactive)

**Q.** And the GI50 (DMS-114)?
**A.** > 100 µM (inactive)

**Q.** And the GI50 (M19-MEL)?
**A.** > 100 µM (inactive)

**Q.** What about the GI50 (KM-20L2) of the same compound?
**A.** > 100 µM (inactive)

**Q.** What about the GI50 (DLD-1) of the same compound?
**A.** > 100 µM (inactive)

**Q.** What about the GI50 (DMS-273) of the same compound?
**A.** > 100 µM (inactive)

**Q.** Which results are given for `Cc1ccc(NC(=O)CCC(=O)C2CC(=O)CC/C2=N\NC(=O)c2cc3ccccc3cc2O)cc1C` (stereo not given)?
**A.** GI50 (HOP-18): 21.8 µM (inactive); GI50 (SNB-78): 28.6 µM (inactive); GI50 (DMS-114): 19.8 µM (inactive); GI50 (M19-MEL): 27.4 µM (inactive); GI50 (KM-20L2): 27.5 µM (inactive); GI50 (RXF 631): 32.6 µM (inactive); GI50 (XF498): 31.1 µM (inactive); GI50 (DLD-1): 30.5 µM (inactive); GI50 (DMS-273): 13.2 µM (inactive)

**Q.** For `COc1ccc(Cc2nccc3cc(OC)c(OC)cc23)cc1`, which GI50 (SNB-78) is on record?
**A.** > 100 µM (inactive)

**Q.** What about the GI50 (DMS-114) of the same compound?
**A.** 29.7 µM (inactive)

**Q.** What about the GI50 (M19-MEL) of the same compound?
**A.** 98.4 µM (inactive)

**Q.** And the GI50 (KM-20L2)?
**A.** > 100 µM (inactive)

**Q.** What about the GI50 (XF498) of the same compound?
**A.** 23.8 µM (inactive)

**Q.** What about the GI50 (DLD-1) of the same compound?
**A.** > 100 µM (inactive)

**Q.** With `CCCCn1c(-c2ccccc2)cs/c1=N\N=C1C=C(C(C)(C)C)C(=O)C(C(C)(C)C)=C1` as the compound, how does the GI50 (DMS-114) read?
**A.** > 100 µM (inactive)

**Q.** And the GI50 (M19-MEL)?
**A.** > 100 µM (inactive)

**Q.** What about the GI50 (KM-20L2) of the same compound?
**A.** > 100 µM (inactive)

**Q.** What about the GI50 (RXF 631) of the same compound?
**A.** > 100 µM (inactive)

**Q.** And the GI50 (XF498)?
**A.** > 100 µM (inactive)

**Q.** And the GI50 (DMS-273)?
**A.** > 100 µM (inactive)

**Q.** For `COc1ccc(C2S/C(=C\c3cc(OC)c(OC)c(OC)c3)C(=O)N2NC(=O)Cc2ccccc2)cc1` (stereo not given), which GI50 (HOP-18) is on record?
**A.** > 100 µM (inactive)

**Q.** What about the GI50 (DMS-114) of the same compound?
**A.** 72.9 µM (inactive)

**Q.** And the GI50 (M19-MEL)?
**A.** > 100 µM (inactive)

**Q.** And the GI50 (DLD-1)?
**A.** 94.2 µM (inactive)

**Q.** And the GI50 (DMS-273)?
**A.** > 100 µM (inactive)

**Q.** Which GI50 (SNB-78) does the source give for `Nc1ccn(CCOC(c2ccccc2)P(=O)(O)O)c(=O)n1` (stereo not given) here?
**A.** > 100 µM (inactive)

**Q.** What about the GI50 (DMS-114) of the same compound?
**A.** > 100 µM (inactive)

**Q.** What about the GI50 (M19-MEL) of the same compound?
**A.** > 100 µM (inactive)

**Q.** What about the GI50 (KM-20L2) of the same compound?
**A.** > 100 µM (inactive)

**Q.** What about the GI50 (XF498) of the same compound?
**A.** > 100 µM (inactive)

**Q.** What about the GI50 (DLD-1) of the same compound?
**A.** > 100 µM (inactive)

**Q.** What about the GI50 (DMS-273) of the same compound?
**A.** > 100 µM (inactive)

**Q.** What does the source list for `CC(C)(C)OC(=O)N1C2CCCC23O[C@@H]1c1cc2c(cc1C3=O)OCO2` (stereo not given in full)?
**A.** GI50 (SNB-78): > 100 µM (inactive); GI50 (DMS-114): 19.9 µM (inactive); GI50 (M19-MEL): 26.6 µM (inactive); GI50 (RXF 631): 27.2 µM (inactive); GI50 (XF498): 26.6 µM (inactive); GI50 (DLD-1): 27.1 µM (inactive); GI50 (DMS-273): 6.27 µM (inactive)

**Q.** For `C=C1C(=O)C23C(O)CC4C(C)(C)CCC(O)C4(C)C2CC(OC(C)=O)C1[C@H]3O` (stereo not given in full), which GI50 (HOP-18) is on record?
**A.** 2.27 µM (inactive)

**Q.** What about the GI50 (SNB-78) of the same compound?
**A.** 0.925 µM (active)

**Q.** And the GI50 (M19-MEL)?
**A.** 1.61 µM (inactive)

**Q.** And the GI50 (KM-20L2)?
**A.** 3.15 µM (inactive)

**Q.** And the GI50 (RXF 631)?
**A.** 4.8 µM (inactive)

**Q.** And the GI50 (XF498)?
**A.** 1.91 µM (inactive)

**Q.** What about the GI50 (DLD-1) of the same compound?
**A.** 1.69 µM (inactive)

**Q.** And the GI50 (DMS-273)?
**A.** 1.65 µM (inactive)

**Q.** Which results are given for `CCCCCCCCCCCCCCCC[N+](C)(C)Cc1ccc(C[N+](C)(C)CCCCCCCCCCCCCCCC)cc1`?
**A.** GI50 (HOP-18): 1.67 µM (inactive); GI50 (SNB-78): 2.73 µM (inactive); GI50 (DMS-114): 1.85 µM (inactive); GI50 (M19-MEL): 2.67 µM (inactive); GI50 (KM-20L2): 3.62 µM (inactive); GI50 (RXF 631): 2.19 µM (inactive); GI50 (DLD-1): 3.48 µM (inactive); GI50 (DMS-273): 1.98 µM (inactive)

**Q.** With `Nc1n[nH]c(N)n1` [GUANAZOLE] as the compound, how does the GI50 (HOP-18) read?
**A.** 5610 µM (inactive)

**Q.** And the GI50 (SNB-78)?
**A.** 5250 µM (inactive)

**Q.** And the GI50 (DMS-114)?
**A.** 1800 µM (inactive)

**Q.** And the GI50 (M19-MEL)?
**A.** > 10000 µM (inactive)

**Q.** And the GI50 (KM-20L2)?
**A.** 7890 µM (inactive)

**Q.** What about the GI50 (XF498) of the same compound?
**A.** 237 µM (inactive)

**Q.** What about the GI50 (DLD-1) of the same compound?
**A.** 9840 µM (inactive)

**Q.** What about the GI50 (DMS-273) of the same compound?
**A.** 914 µM (inactive)
